One data set addresses T1, HCMV polymerase (Human cytomegalovirus, UniProt P08546).
T1 construct: made in house; host or cells: SF-9 insect cells (recombinant baculovirus)
In words: HCMV polymerase scintillation proximity assay. Type of data set: biochemical. As for the experimental part:
(§1) The HCMV polymerase assay is performed using a scintillation proximity assay (SPA) as described in several references, such as N.D. Cook, et al., Pharmaceutical Manufacturing International, pages 49-53 (1992), K Takeuchi, Laboratory Practice, September issue (1992); U.S. Pat. No. 4,568,649 (1986); which are incorporated by reference herein. Reactions are performed in 96-well plates. The assay is conducted in 100 μl volume with 5.4 mM HEPES (pH 7.5), 11.7 mM KCl, 4.5 mM MgCl2, 0.36 mg/ml BSA, and 90 nM ^3H-dTTP. Assays are run with and without CHAPS, (3-[(3-Cholamidopropyl)-dimethylammonio]-1-propane-sulfonate) at a final concentration of 2 mM. HCMV polymerase is diluted in enzyme dilution buffer containing 50% glycerol, 250 mM NaCl, 10 mM HEPES (pH 7.5), […] BSA, and 0.01% sodium azide. The HCMV polymerase, which is expressed in recombinant baculovirus-infected SF-9 cells and purified according to literature procedures, is added at 10% (or 10 μl) of the final reaction volume, i.e., 100 μl. Compounds are diluted in 50% DMSO and 10 μl are added to each well. Control wells contain an equivalent concentration of DMSO. Unless noted otherwise, reactions are initiated via the addition of 6 nM biotinylated poly(dA)-oligo(dT) template/primer to reaction mixtures containing the enzyme, substrate, and compounds of interest. Plates are incubated in a 25° C. or 37° C. H2O bath and terminated via the addition of 40 μl/reaction of 0.5 M EDTA (pH 8) per well. Reactions are terminated within the time-frame during which substrate incorporation is linear and varied depending upon the enzyme and conditions used, Le., 30 min. for HCMV polymerase. Ten (10) μl of streptavidin-SPA beads (20 mg/ml in PBS/10% glycerol) are added following termination of the reaction. Plates are incubated 10 min. at 37° C., then equilibrated to room temperature, and counted on a Packard Topcount. Linear regressions are performed and IC50's are calculated using computer software.
(§2) A modified version of the above HCMV polymerase assay is performed as described above, but with the following changes: Compounds are diluted in 100% DMSO until final dilution into assay buffer. In the previous assay, compounds are diluted in 50% DMSO. 4.5 mM Dithiothreitol (DTT) is added to the polymerase buffer.
(§3) All results are listed as Polymerase IC50(μM) values. In Table 1, the term “n.d.” refers to activity data not determined.
In general terms: In a scintillation proximity assay essentially only radioactivity close to the scintillant gives light.

A further data set concerns the target HSV polymerase (Human herpesvirus 1, UniProt P04293). Put plainly: HSV polymerase assay (SPA). In kind it is biochemical. The method, then: [Worded in the source for another target; used here, by the source, with some conditions changed.] as §1, §2, §3
The next data set addresses VZV polymerase (Varicella-zoster virus, UniProt P09252). Put plainly: VZV polymerase assay (SPA). Type of data set: biochemical. The method, then:
[Worded in the source for another target; used here, by the source, with some conditions changed.] as §1, with “Control wells contain an equivalent concentration of DMSO. Unless noted otherwise, reactions are initiated via the addition of 6 nM biotinylated poly(dA)-oligo(dT) template/primer to reaction mixtures containing the enzyme, substrate, and compounds of interest. Plates are incubated in a 25° C. or 37° C. H2O bath and terminated via the addition of 40 μl/reaction of 0.5 M EDTA (pH 8) per well. Reactions are terminated within the time-frame during which substrate incorporation is linear and varied depending upon the enzyme and conditions used, Le., 30 min. for HCMV polymerase. Ten (10) μl of streptavidin-SPA beads (20 mg/ml in PBS/10% glycerol) are added following termination of the reaction.” left out, “software. […]” for “software.”
as §3

Our source for the IC50 and melting point values is patent US6831081B2, “4-Oxo-4,7-dihydrothieno[2,3-b]pyridine-5-carboxamides as antiviral agents” (Pharmacia & Upjohn, priority 2002, dated 2004).

The IC50 is the concentration needed to halve the response being measured. A lower IC50 goes with greater potency. The term melting point denotes the temperature, or range, at which the solid turns liquid.

T1 sequence (P08546 whole entry): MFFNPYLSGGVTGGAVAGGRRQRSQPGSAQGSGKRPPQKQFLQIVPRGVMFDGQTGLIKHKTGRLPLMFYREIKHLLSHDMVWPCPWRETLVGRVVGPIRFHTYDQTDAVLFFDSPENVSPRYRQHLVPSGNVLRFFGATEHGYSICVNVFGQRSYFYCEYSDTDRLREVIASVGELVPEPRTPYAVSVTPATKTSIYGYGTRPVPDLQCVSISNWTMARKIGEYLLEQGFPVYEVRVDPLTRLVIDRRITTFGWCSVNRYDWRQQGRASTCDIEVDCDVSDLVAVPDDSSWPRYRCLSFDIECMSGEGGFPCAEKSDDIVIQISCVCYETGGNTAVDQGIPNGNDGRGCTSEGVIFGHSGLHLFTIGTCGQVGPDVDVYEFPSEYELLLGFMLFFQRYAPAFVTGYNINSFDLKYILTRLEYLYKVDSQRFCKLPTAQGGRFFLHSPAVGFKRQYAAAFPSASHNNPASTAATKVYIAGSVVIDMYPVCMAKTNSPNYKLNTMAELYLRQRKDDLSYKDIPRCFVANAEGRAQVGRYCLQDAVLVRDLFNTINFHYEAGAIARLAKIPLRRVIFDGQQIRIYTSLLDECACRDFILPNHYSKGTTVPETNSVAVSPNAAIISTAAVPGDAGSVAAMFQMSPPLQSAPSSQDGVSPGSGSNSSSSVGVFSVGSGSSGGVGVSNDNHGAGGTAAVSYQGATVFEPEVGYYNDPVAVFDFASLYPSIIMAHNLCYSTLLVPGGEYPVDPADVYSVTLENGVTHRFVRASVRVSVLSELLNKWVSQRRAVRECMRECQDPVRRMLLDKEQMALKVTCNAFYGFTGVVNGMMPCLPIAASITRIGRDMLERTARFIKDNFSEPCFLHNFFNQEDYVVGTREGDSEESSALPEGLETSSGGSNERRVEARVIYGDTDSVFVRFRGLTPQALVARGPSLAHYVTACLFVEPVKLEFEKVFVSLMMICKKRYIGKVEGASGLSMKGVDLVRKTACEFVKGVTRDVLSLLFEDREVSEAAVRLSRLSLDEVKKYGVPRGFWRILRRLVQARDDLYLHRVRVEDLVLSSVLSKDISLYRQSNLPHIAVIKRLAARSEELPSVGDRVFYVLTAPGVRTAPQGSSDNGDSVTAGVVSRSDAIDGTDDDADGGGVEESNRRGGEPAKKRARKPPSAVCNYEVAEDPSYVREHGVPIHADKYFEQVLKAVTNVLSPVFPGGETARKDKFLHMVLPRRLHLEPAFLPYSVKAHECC
Chain of HSV polymerase (P04293 whole entry): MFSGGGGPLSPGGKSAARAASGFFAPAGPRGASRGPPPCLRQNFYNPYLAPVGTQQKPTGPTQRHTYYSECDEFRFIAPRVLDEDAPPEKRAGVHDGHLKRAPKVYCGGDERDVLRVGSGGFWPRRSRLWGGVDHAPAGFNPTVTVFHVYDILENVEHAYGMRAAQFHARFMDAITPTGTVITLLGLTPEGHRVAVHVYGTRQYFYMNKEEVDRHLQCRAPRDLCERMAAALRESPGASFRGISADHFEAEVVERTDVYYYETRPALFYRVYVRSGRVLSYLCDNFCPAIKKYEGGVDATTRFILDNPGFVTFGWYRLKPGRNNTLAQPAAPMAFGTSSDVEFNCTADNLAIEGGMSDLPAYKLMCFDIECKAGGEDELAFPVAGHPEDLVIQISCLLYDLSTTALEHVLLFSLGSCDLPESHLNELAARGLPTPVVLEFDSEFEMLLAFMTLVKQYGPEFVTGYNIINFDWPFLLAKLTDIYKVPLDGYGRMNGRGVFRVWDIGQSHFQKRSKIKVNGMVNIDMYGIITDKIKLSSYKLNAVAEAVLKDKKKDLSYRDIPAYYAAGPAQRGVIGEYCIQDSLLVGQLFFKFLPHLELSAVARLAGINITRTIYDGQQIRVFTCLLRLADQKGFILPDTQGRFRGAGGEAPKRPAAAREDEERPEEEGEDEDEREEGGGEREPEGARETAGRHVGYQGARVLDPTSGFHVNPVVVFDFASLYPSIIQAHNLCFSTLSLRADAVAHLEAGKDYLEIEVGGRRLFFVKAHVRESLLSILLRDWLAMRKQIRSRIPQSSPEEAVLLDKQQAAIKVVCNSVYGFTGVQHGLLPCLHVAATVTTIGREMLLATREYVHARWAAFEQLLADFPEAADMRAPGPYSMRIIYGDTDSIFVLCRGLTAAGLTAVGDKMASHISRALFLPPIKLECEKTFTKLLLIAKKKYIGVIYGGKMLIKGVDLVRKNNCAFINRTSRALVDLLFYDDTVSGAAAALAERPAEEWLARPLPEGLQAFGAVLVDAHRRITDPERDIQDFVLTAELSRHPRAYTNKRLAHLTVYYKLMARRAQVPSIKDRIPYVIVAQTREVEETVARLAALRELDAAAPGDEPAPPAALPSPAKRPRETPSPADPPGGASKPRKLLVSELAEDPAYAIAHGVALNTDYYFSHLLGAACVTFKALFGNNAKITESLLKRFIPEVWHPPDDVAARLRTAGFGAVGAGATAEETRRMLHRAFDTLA
Chain of VZV polymerase (P09252 whole entry): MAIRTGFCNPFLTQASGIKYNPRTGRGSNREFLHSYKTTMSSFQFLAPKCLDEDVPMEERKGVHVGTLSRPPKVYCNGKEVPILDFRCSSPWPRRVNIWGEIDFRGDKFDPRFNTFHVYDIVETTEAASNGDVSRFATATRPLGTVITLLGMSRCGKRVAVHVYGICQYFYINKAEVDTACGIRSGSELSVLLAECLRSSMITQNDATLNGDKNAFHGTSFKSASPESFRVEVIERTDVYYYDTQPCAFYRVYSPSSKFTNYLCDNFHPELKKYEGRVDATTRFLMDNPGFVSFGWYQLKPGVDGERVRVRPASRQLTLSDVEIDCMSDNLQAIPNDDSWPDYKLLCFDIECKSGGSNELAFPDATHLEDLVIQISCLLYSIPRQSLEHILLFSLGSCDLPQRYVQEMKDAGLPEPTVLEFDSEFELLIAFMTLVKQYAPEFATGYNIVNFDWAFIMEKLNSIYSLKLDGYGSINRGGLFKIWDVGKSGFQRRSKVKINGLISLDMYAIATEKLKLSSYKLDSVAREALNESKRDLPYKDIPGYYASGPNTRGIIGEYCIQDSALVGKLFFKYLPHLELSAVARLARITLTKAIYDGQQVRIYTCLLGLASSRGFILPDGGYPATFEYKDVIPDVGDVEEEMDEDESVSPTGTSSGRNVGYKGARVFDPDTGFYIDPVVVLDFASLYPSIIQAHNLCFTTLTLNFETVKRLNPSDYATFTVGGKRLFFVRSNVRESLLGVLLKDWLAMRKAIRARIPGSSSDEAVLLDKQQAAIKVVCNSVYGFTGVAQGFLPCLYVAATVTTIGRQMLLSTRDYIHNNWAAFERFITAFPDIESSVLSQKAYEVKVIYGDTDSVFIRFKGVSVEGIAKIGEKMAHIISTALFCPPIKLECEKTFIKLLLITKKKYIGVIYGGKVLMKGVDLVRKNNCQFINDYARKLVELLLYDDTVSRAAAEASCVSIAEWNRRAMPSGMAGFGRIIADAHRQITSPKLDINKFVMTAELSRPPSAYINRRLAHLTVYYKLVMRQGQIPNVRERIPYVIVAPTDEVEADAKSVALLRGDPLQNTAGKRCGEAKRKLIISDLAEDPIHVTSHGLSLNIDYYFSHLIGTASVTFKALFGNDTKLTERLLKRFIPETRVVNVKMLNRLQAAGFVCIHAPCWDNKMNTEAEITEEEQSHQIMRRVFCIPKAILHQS

Compound `Cn1cc(C(=O)NCc2ccc(Cl)cc2)c(=O)c2cc(CN3CCOC[C@@H]3[C@H](O)c3ccccc3)sc21` [Example 14, N-(4-Chlorobenzyl)-2-(((3R)-3-((R)-hydroxy(phenyl)methyl)morpholin-4-yl)-methyl)-7-methyl-4-oxo-4,7-dihydrothieno[2,3-b]pyridine-5-carboxamide] returned a melting point of 171 to 172 °C. This compound also came in with an IC50 against HCMV polymerase of 1270 nM. The midpoint of inhibition against HSV polymerase, the IC50, lay at 2970 nM.
Take `Cn1cc(C(=O)NCc2ccc(Cl)cc2)c(=O)c2cc(CN3CCOC[C@@H]3Cc3ccccc3)sc21` [Example 1, 2-(((3S)-3-Benzylmorpholin-4-yl)methyl)-N-(4-chlorobenzyl)-7-methyl-4-oxo-4,7-dihydrothieno[2,3-b]pyridine-5-carboxamide]: the figures for the 50% inhibitory concentration (IC50) against HCMV polymerase, against VZV polymerase and against HSV polymerase were 450 nM, 420 nM and 1000 nM, respectively.
Turning to `Cn1cc(C(=O)NCc2ccc(Cl)cc2)c(=O)c2cc(CN3CCC[C@@H]3[C@@H](O)c3ccccc3)sc21` (relative stereo) [Example 2, N-(4-Chlorobenzyl)-2-(((2R*2)-(S*)-hydroxy(phenyl)methyl)pyrrolidin-1-yl)methyl)-7-methyl-4-oxo-4,7-dihydrothieno[2,3-b]pyridine-5-carboxamide], the melting point lay in the range of 158 to 162 °C. In addition, the IC50 at HCMV polymerase is 120 nM. Also, on VZV polymerase, the IC50 amounted to 210 nM. The compound also gave an IC50 against HSV polymerase of 720 nM.
In the case of `Cn1cc(C(=O)NCc2ccc(Cl)cc2)c(=O)c2cc(CN3CCOC[C@@H]3[C@@H](O)c3ccccc3)sc21` [Example 15, N-(4-Chlorobenzyl)-2-(((3R)-3-((S)hydroxy(phenyl)methyl)morpholin-4-yl)-methyl)-7-methyl-4-oxo-4,7-dihydrothieno[2,3-b]pyridine-5-carboxamide], the melting point fell in the range of 129 to 134 °C. Also, the IC50 at HCMV polymerase was found to be 24 nM. The compound further registered an IC50 against HSV polymerase of 22 nM.
